The text below walks through data of patent US20250361230A1, “LATS Inhibitors and Uses Thereof” (The USA, as Represented by the Secretary, Dept. of Heath …, priority 2022, published 2025).

By IC50 is commonly meant the concentration that gives 50% inhibition.

Each structure is given as a SMILES string. Where only a bound is given, the exact number is not on record here.

The target of one assay is T1, LATS1 Kinase-NanoLuc fusion in HEK-293 cells (Homo sapiens, UniProt O95835).
T1 construct: host or cells: HEK-293
T1 sequence (O95835 1-1130): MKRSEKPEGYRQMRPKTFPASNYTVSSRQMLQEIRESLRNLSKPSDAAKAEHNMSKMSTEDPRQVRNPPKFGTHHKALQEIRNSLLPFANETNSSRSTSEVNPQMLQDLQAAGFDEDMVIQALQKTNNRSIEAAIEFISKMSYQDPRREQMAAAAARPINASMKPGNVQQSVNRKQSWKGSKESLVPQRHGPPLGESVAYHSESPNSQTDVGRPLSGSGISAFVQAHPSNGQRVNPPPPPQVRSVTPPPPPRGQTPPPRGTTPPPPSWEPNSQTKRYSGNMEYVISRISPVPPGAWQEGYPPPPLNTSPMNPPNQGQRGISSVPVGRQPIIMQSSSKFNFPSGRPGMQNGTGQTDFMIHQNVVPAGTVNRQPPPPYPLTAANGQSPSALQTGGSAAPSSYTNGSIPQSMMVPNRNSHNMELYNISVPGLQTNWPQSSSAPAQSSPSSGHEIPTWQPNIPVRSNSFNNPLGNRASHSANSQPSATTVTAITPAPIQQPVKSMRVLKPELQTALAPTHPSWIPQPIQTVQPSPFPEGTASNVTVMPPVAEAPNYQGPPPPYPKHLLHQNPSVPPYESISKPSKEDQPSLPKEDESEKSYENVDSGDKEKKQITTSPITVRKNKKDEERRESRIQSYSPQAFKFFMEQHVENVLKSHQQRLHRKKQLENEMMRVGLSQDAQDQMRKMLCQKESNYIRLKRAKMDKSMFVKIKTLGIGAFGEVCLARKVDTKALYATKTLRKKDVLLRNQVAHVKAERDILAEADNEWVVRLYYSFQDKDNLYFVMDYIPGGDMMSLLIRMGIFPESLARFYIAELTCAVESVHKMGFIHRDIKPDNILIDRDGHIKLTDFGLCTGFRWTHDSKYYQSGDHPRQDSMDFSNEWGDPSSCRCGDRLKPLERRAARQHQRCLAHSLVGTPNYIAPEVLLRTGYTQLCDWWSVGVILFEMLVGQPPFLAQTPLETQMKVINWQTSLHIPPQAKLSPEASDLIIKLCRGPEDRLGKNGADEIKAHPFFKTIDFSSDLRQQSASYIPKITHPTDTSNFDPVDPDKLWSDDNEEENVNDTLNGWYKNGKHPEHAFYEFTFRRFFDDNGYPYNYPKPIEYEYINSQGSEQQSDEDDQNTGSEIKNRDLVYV
The assay can be described thus: NanoBRET target engagement assay in transfected HEK-293 cells, LATS1. The assay is classed as cell-based. As to conditions: Table 28, NanoBRET, HEK-293 cells; read-out: LATS1 (Cellular) IC50. The essentials:
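HEK-293 cells transiently transfected with kinase-NanoLuc fusion plasmid for 22-24 h, then incubated with compound and NanoBRET tracer for 1 hour at 37° C. After substrate plus extracellular NanoLuc inhibitor addition, 460 and 600 nm emissions read; no-tracer-corrected BRET ratio used to derive IC50 values.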
On the technique in general: In BRET a luciferase serves as donor, and the signal depends on an acceptor being close.
With `OC1(c2ccc(-c3ccnc4[nH]cc(F)c34)cc2)CC2(CNC2)C1` [Compound 319, 6-(4-(3-fluoro-1H-pyrrolo[2,3-b]pyridin-4-yl)phenyl)-2-azaspiro[3.3]heptan-6-ol], the IC50 came to 27700 nM.

Staying with this assay, now noted: Table 32, NanoBRET, HEK-293 cells; read-out: LATS1 (Cellular) IC50.
On to `NCC(O)(c1ccc(Cl)cc1)c1ccc(-c2ccnc3[nH]ccc23)cc1` (stereo not drawn) [Compound 1001, 1-(4-(1H-pyrrolo[2,3-b]pyridin-4-yl)phenyl)-2-amino-1-(4-chlorophenyl)ethan-1-ol], for which the IC50 stood at 123 nM.
The same measure, in the same setting: the figure for `NCC(O)(c1ccc(Cl)cc1)c1ccc(-c2ccnc3[nH]cc(F)c23)cc1` (stereo not drawn) [Compound 1002, 2-amino-1-(4-chlorophenyl)-1-(4-(3-fluoro-1H-pyrrolo[2,3-b]pyridin-4-yl)phenyl)ethan-1-ol] is 55 nM; for `COC(=O)c1c[nH]c2nccc(-c3ccc(C(O)(CN)c4ccc(Cl)cc4)cc3)c12` (stereo not drawn) [Compound 1004, Methyl 4-(4-(2-amino-1-(4-chlorophenyl)-1-hydroxyethyl)phenyl)-1H-pyrrolo[2,3-b]pyridine-3-carboxylate] it is 2000 nM.
Still for that read-out and setting: the figure for `NCC(O)(c1ccc(Cl)cc1)c1ccc(-c2ccnc3[nH]cc(Br)c23)cc1` (stereo not drawn) [Compound 1005, 2-amino-1-(4-(3-bromo-1H-pyrrolo[2,3-b]pyridin-4-yl)phenyl)-1-(4-chlorophenyl)ethan-1-ol] is 8 nM.
Same read-out and setting: the figure for `NCC(O)(c1ccc(Cl)cc1)c1ccc(-c2ccnc3[nH]cc(-c4ccccc4)c23)cc1` (stereo not drawn) [Compound 1006, 2-amino-1-(4-chlorophenyl)-1-(4-(3-phenyl-1H-pyrrolo[2,3-b]pyridin-4-yl)phenyl)ethan-1-ol] is 283 nM; for `NCC(O)(c1ccc(Cl)cc1)c1ccc(-c2ccnc3[nH]cc(-c4cccnc4)c23)cc1` (stereo not drawn) [Compound 1007, 2-amino-1-(4-chlorophenyl)-1-(4-(3-(pyridin-3-yl)-1H-pyrrolo[2,3-b]pyridin-4-yl)phenyl)ethan-1-ol] it is 309 nM; for `NCC(O)(c1ccc(Cl)cc1)c1ccc(-c2ccnc3[nH]cc(Br)c23)nc1` (stereo not drawn) [Compound 1011, 2-amino-1-(6-(3-bromo-1H-pyrrolo[2,3-b]pyridin-4-yl)pyridin-3-yl)-1-(4-chlorophenyl)ethan-1-ol] it is 24 nM.
As to `NCC(=O)NCC(O)(c1ccc(Cl)cc1)c1ccc(-c2ccnc3[nH]cc(Cl)c23)cc1` (stereo not drawn) [Compound 1021, 2-amino-N-(2-(4-(3-chloro-1H-pyrrolo[2,3-b]pyridin-4-yl)phenyl)-2-(4-chlorophenyl)-2-hydroxyethyl) acetamide], the IC50 stood at 159 nM.

The assay is the same for the next values; noted with them: cellular.
`Cc1cc(-c2ccnc3[nH]cc(C#N)c23)cc(F)c1[C@@]1(O)[C@H](C)CN(C2CCS(=O)(=O)CC2)C[C@@H]1C` [Compound 2002, 4-(4-((3S,4s,5R)-1-(1,1-dioxidotetrahydro-2H-thiopyran-4-yl)-4-hydroxy-3,5-dimethylpiperidin-4-yl)-3-fluoro-5-methylphenyl)-1H-pyrrolo[2,3-b]pyridine-3-carbonitrile] registered an IC50 of 30.4 nM.
Still for that read-out and setting: the figure for `Cc1cc(-c2ccnc3[nH]cc(C#N)c23)cc(F)c1[C@@]1(O)[C@H](C)CN(C(=O)CN)C[C@@H]1C` [Compound 2004, 4-(3-fluoro-4-((3S,4s,5R)-1-glycyl-4-hydroxy-3,5-dimethylpiperidin-4-yl)-5-methylphenyl)-1H-pyrrolo[2,3-b]pyridine-3-carbonitrile] is 2.5 nM; for `Cc1cc(-c2ccnc3[nH]cc(C#N)c23)ccc1[C@@]1(O)[C@H](C)CN(C(=O)CN)C[C@@H]1C` [Compound 2005, 4-(4-((3S,4s,5R)-1-glycyl-4-hydroxy-3,5-dimethylpiperidin-4-yl)-3-methylphenyl)-1H-pyrrolo[2,3-b]pyridine-3-carbonitrile] it is 46.6 nM; for `Cc1cc(-c2ccnc3[nH]cc(C#N)c23)cc(F)c1[C@@]1(O)[C@H](C)CN(C(=O)[C@H](N)CO)C[C@@H]1C` [Compound 2007, 4-(4-((3S,4S,5R)-1-(D-seryl)-4-hydroxy-3,5-dimethylpiperidin-4-yl)-3-fluoro-5-methylphenyl)-1H-pyrrolo[2,3-b]pyridine-3-carbonitrile] it is less than 2.5 nM.
`Cc1cc(-c2ccnc3[nH]cc(C#N)c23)cc(F)c1[C@@]1(O)[C@H](C)CN(C(=O)[C@](C)(N)CO)C[C@@H]1C` [Compound 2008, 4-(4-((3S,4s,5R)-1-(2-amino-3-hydroxy-2-methylpropanoyl)-4-hydroxy-3,5-dimethylpiperidin-4-yl)-3-fluoro-5-methylphenyl)-1H-pyrrolo[2,3-b]pyridine-3-carbonitrile] came in with an IC50 of less than 2.5 nM.
On the same count and under the same terms, the figure for `Cc1cc(-c2ccnc3[nH]cc(C#N)c23)cc(F)c1[C@@]1(O)[C@H](C)CN(C(=O)[C@H](C)N)C[C@@H]1C` [Compound 2011, 4-(4-((3S,4R,5R)-1-(L-alanyl)-4-hydroxy-3,5-dimethylpiperidin-4-yl)-3-fluoro-5-methylphenyl)-1H-pyrrolo[2,3-b]pyridine-3-carbonitrile] is less than 2.5 nM.
Still for that read-out and setting: under `CNCC(=O)N1C[C@@H](C)[C@](O)(c2c(C)cc(-c3ccnc4[nH]cc(C#N)c34)cc2F)[C@@H](C)C1` [Compound 2012, 4-(3-fluoro-4-((3S,4s,5R)-4-hydroxy-3,5-dimethyl-1-(methylglycyl)piperidin-4-yl)-5-methylphenyl)-1H-pyrrolo[2,3-b]pyridine-3-carbonitrile] stands less than 2.5 nM; under `Cc1cc(-c2ccnc3[nH]cc(C#N)c23)cc(F)c1[C@@]1(O)[C@H](C)CN(C(=O)CNCC(F)(F)F)C[C@@H]1C` [Compound 2014, 4-(3-fluoro-4-((3S,4s,5R)-4-hydroxy-3,5-dimethyl-1-((2,2,2-trifluoroethyl)glycyl)piperidin-4-yl)-5-methylphenyl)-1H-pyrrolo[2,3-b]pyridine-3-carbonitrile], 139 nM; under `Cc1cc(-c2ccnc3[nH]cc(C#N)c23)cc(F)c1[C@@]1(O)[C@H](C)CN(C(=O)[C@@H](C)N)C[C@@H]1C` [Compound 2015, 4-(4-((3S,4S,5R)-1-(D-alanyl)-4-hydroxy-3,5-dimethylpiperidin-4-yl)-3-fluoro-5-methylphenyl)-1H-pyrrolo[2,3-b]pyridine-3-carbonitrile], less than 2.5 nM.
Still for that read-out and setting: the figure for `Cc1cc(-c2ccnc3[nH]cc(C#N)c23)cc(F)c1[C@@]1(O)[C@H](C)CN(C(=O)C(N)C(F)(F)F)C[C@@H]1C` (stereo partly drawn) [Compound 2017, 4-(4-((3S,4s,5R)-1-(2-amino-3,3,3-trifluoropropanoyl)-4-hydroxy-3,5-dimethylpiperidin-4-yl)-3-fluoro-5-methylphenyl)-1H-pyrrolo[2,3-b]pyridine-3-carbonitrile] is less than 2.5 nM; for `Cc1cc(-c2ccnc3[nH]cc(C#N)c23)cc(F)c1[C@@]1(O)[C@H](C)CN(C(=O)[C@H](CO)N(C)C)C[C@@H]1C` [Compound 2023, 4-(4-((3S,4R,5R)-1-(dimethyl-L-seryl)-4-hydroxy-3,5-dimethylpiperidin-4-yl)-3-fluoro-5-methylphenyl)-1H-pyrrolo[2,3-b]pyridine-3-carbonitrile] it is less than 2.5 nM.
On to `Cc1cc(-c2ccnc3[nH]cc(C#N)c23)cc(F)c1[C@@]1(O)[C@H](C)CNC[C@@H]1C` [Compound 2024, 4-(3-fluoro-4-((3S,4s,5R)-4-hydroxy-3,5-dimethylpiperidin-4-yl)-5-methylphenyl)-1H-pyrrolo[2,3-b]pyridine-3-carbonitrile], for which the IC50 came out at 37.9 nM.
